Laboratory results taken from the NIST ThermoML archive (doi:10.1021/je4007019).

Assay: molar heat capacity at constant pressure; xn = mol fraction of the nth substance listed
Settings: Liquid, Large sample (1 g) DSC

CCCC [butane] + C
molar heat capacity at constant pressure [J/K/mol]
Settings	118.15 K	128.15 K	138.15 K	148.15 K	158.15 K	168.15 K	178.15 K
5050 kPa, x2 = 0.95	–	–	–	62.44	64.49	67.9	73.38
5150 kPa, x2 = 0.6	76.47	76.37	77.25	77.85	78.21	78.34	–
5150 kPa, x2 = 0.88	61.84	62.6	63.49	64.92	66.55	68.32	–

C [methane] + CCC
molar heat capacity at constant pressure [J/K/mol]
Settings	108.15 K	118.15 K	128.15 K	143.15 K	153.15 K	163.15 K
4700 kPa, x1 = 0.81	59.46	59.69	60.46	61.47	62.96	63.63
5200 kPa, x1 = 0.82	59.21	59.52	60.05	61.36	62.9	63.97
6000 kPa, x1 = 0.81	57.53	58.6	59.05	60.8	62.56	63.41
